Tests used:
Safety and tolerability = format: in vivo, human; details: midazolam alone
CYP3A4 = CYP3A4 (Homo sapiens, UniProt P08684); assay: Midazolam interaction study; format: in vivo; details: for AUC ratio day 1/day−1, point estimate geometric LS means (geometric 90% CI) / AUC ratio day 10/day−1, point estimate geometric LS means (geometric 90% CI): ANOVA
[1] = BAY 2433334 25 mg treatment sequence
[2] = BAY 2433334 75 mg treatment sequence
[3] = BAY 2433334 25 mg OD + Midazolam
[4] = BAY 2433334 75 mg OD + Midazolam
[5] = day 1, coadministration of BAY 2433334 25 mg
[6] = day 1, coadministration of BAY 2433334 75 mg
[7] = day 10, BAY 2433334 25 mg once daily

CYP3A4, sequence (P08684 whole entry): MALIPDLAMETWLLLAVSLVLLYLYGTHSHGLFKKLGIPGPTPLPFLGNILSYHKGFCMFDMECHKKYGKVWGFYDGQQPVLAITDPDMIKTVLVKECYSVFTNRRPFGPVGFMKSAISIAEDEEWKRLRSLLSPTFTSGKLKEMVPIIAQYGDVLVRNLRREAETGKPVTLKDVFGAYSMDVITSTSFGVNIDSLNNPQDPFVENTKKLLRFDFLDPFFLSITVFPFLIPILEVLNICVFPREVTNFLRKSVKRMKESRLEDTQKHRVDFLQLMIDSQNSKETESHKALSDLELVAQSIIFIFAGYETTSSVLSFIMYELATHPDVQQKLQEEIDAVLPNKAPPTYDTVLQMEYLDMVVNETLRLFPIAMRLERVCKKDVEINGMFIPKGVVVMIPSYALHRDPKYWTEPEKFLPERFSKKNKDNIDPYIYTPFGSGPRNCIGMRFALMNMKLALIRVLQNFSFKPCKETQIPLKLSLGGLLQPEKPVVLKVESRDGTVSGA

Cc1ncc2n1-c1ccc(Cl)cc1C(c1ccccc1F)=NC2 [Midazolam, midazolam]
Adverse event(s) of special interest (Safety and tolerability; [1]): 0 Number (%) | Study drug‐related adverse event(s) (Safety and tolerability; [1]): 0 Number (%) | Study procedure‐related adverse event(s) (Safety and tolerability; [1]): 3 (12.5%) Number (%) | Adverse event(s) of special interest (Safety and tolerability; [2]): 0 Number (%) | Study drug‐related adverse event(s) (Safety and tolerability; [2]): 0 Number (%) | Study procedure‐related adverse event(s) (Safety and tolerability; [2]): 1 (4.2%) Number (%) | AUC ratio day 1/day−1, point estimate geometric LS means (geometric 90% CI) (CYP3A4; [3]): 1.0415 (0.9659–1.1230) | AUC ratio day 10/day−1, point estimate geometric LS means (geometric 90% CI) (CYP3A4; [3]): 1.0630 (0.9859–1.1461) | AUC ratio day 1/day−1, point estimate geometric LS means (geometric 90% CI) (CYP3A4; [4]): 1.0451 (0.9785–1.1164) | AUC ratio day 10/day−1, point estimate geometric LS means (geometric 90% CI) (CYP3A4; [4]): 1.1736 (1.0963–1.2564) | AUC ratio day 10/day−1, point estimate geometric LS means (geometric 90% CI) (CYP3A4; BAY 2433334 75 mg OD + Midazolam, listed as midazolam): 1.1736 [1.0963–1.2564] | increase in the AUC (CYP3A4; [5]): 4.2% | increase in the AUC (CYP3A4; [6]): 4.5% | increase in the AUC (CYP3A4; [7]): 6.3% | increase in the AUC (CYP3A4; day 10, pre‐ and coadministration of BAY 2433334 75 mg): 17% | half-life (CYP3A4; human, plasma, oral, 7.5 mg, t1/2, Day −1, midazolam 7.5 mg alone, BAY 2433334 75 mg OD group, median (range), geometric mean not calculated): 287 min | tmax (CYP3A4; human, plasma, oral, 7.5 mg, tmax, Day −1, midazolam 7.5 mg alone, BAY 2433334 25 mg OD group, median (range)): 35 min | tmax (CYP3A4; human, plasma, oral, 7.5 mg, tmax, Day −1, midazolam 7.5 mg alone, BAY 2433334 75 mg OD group, median (range)): 45 min | tmax (CYP3A4; human, plasma, oral, tmax, Day 1, midazolam 7.5 mg with BAY 2433334 25 mg OD, median (range)): 44.5 min | tmax (CYP3A4; human, plasma, oral, tmax, Day 1, midazolam 7.5 mg with BAY 2433334 75 mg OD, median (range)): 45 min | tmax (CYP3A4; human, plasma, oral, tmax, Day 10, midazolam 7.5 mg with BAY 2433334 25 mg OD, median (range)): 45 min | tmax (CYP3A4; human, plasma, oral, tmax, Day 10, midazolam 7.5 mg with BAY 2433334 75 mg OD, median (range)): 45 min

OCc1ncc2n1-c1ccc(Cl)cc1C(c1ccccc1F)=NC2 [α‐Hydroxymidazolam, α‐hydroxymidazolam]
AUC ratio day 1/day−1, point estimate geometric LS means (geometric 90% CI) (CYP3A4; [3]): 1.0650 (0.9661–1.1741) | AUC ratio day 10/day−1, point estimate geometric LS means (geometric 90% CI) (CYP3A4; [3]): 1.0560 (0.9595–1.1622) | AUC ratio day 1/day−1, point estimate geometric LS means (geometric 90% CI) (CYP3A4; [4]): 0.9856 (0.9206–1.0551) | AUC ratio day 10/day−1, point estimate geometric LS means (geometric 90% CI) (CYP3A4; [4]): 0.9864 (0.9169–1.0612) | AUC ratio day 10/day−1, point estimate geometric LS means (geometric 90% CI) (CYP3A4; BAY 2433334 75 mg OD + Midazolam, listed as α‐hydroxymidazolam): 0.9864 [0.9169–1.0612] | tmax (CYP3A4; Day 1, midazolam 7.5 mg with BAY 2433334 25 mg OD, median (range)): 0.742 (0.500–4.00) h | tmax (CYP3A4; Day 1, midazolam 7.5 mg with BAY 2433334 75 mg OD, median (range)): 0.750 (0.483–4.00) h | tmax (CYP3A4; Day 10, midazolam 7.5 mg with BAY 2433334 25 mg OD, median (range)): 0.750 (0.483–4.00) h | tmax (CYP3A4; Day 10, midazolam 7.5 mg with BAY 2433334 75 mg OD, median (range)): 0.750 (0.483–2.00) h | tmax (CYP3A4; Day −1, midazolam 7.5 mg alone, BAY 2433334 25 mg OD group, median (range)): 0.708 (0.483–4.00) h | tmax (CYP3A4; Day −1, midazolam 7.5 mg alone, BAY 2433334 75 mg OD group, median (range)): 0.750 (0.500–3.00) h | increase in the AUC (CYP3A4; [5]): 4.4% | decrease in the AUC (CYP3A4; [6]): 1.5% | increase in the AUC (CYP3A4; [7]): 6.0% | time to maximum plasma concentrations, range across treatments (CYP3A4; with and without BAY 2433334): 0.583 to 0.750 h

Reference: publication PMC9311154 (British Journal of Clinical Pharmacology, 2022)
